Laboratory results taken from publication PMC5838563, “Compounds producing an effective combinatorial regimen for disruption of HIV‐1 latency” (EMBO Molecular Medicine, 2017).

How the values were obtained:
[1] = system: HIV‐1 LTR (Jurkat^Tat LTR‐DsRed clone #11); assay: mdHIV LTR‐DsRed reporter assay, clone #11; format: cell-based
Description: HIV‐1 tends to integrate into actively transcribed regions of the host genome (Jordan et al, 2003; Lewinski et al, 2006; Ikeda et al, 2007). Each HIV‐1‐infected patient carries viral DNA integrated at different chromosomal locations, and as we have previously shown, the site of viral integration influences how latently infected T cells respond to different stimuli (Hashemi et al, 2016). Therefore, an ideal LRA should be capable of disrupting latency in cell models carrying integrated viral reporters at multiple different regions within the host genome. To assess this capability for the PH compounds, we used two additional previously described cell lines, designated Jurkat^Tat LTR‐DsRed clones #11, and #131, that carry a mini‐dual fluorescent HIV‐1 LTR reporter (mdHIV) at different chromosomal locations. The minivirus mdHIV has two fluorescent reporters in which DsRed expression is driven from the 5′ LTR, and eGFP is constitutively expressed from an internal EIF‐1α promoter (Fig 5A). […]
(§1) Figure 5 Effect of PH02 on HIV provirus integrated at different chromosomal locations • A The effect of PH compounds was analyzed using clonal lines bearing single‐copy integrations of the mini‐dual fluorescent HIV‐1 LTR reporter, md‐HIV, where GFP is constitutively expressed from the EIF‐1α internal promoter, and DsRed from the 5′ LTR. • B Fluorescence‐activated cell sorting (FACS) of cells bearing md‐HIV provirus indicates expression of EIF‐1α‐GFP and LTR‐dsRed. Stimulation of the md‐HIV lines generally causes a shift of the fluorescence profile from GFP^+/DsRed^− toward GFP^+/DsRed^+. • C, D Clone 11 or clone 131 was treated with the indicated concentrations of PH02 (left panels) or PH02 in combination with 10 nM PEP005 (right panels) for 24 h and cells analyzed by flow cytometry. Results presented as Δmean fluorescence intensity (ΔMFI) of DsRed expression and fold increase in DsRed expression for solo and combination treatments, respectively. Mean and SE are determined from three biological replicates (n = 3) and technical duplicates. […]

[2] = system: HIV‐1 LTR (Jurkat^Tat LTR‐DsRed clone #131); assay: mdHIV LTR‐DsRed reporter assay, clone #131; format: cell-based
Description: HIV‐1 tends to integrate into actively transcribed regions of the host genome (Jordan et al, 2003; Lewinski et al, 2006; Ikeda et al, 2007). Each HIV‐1‐infected patient carries viral DNA integrated at different chromosomal locations, and as we have previously shown, the site of viral integration influences how latently infected T cells respond to different stimuli (Hashemi et al, 2016). Therefore, an ideal LRA should be capable of disrupting latency in cell models carrying integrated viral reporters at multiple different regions within the host genome. […]
as §1, with “cytometry.” for “cytometry. Results presented as Δmean fluorescence intensity (ΔMFI) of DsRed expression and fold increase in DsRed expression for solo and combination treatments, respectively. Mean and SE are determined from three biological replicates (n = 3) and technical duplicates.”

[3] = PH02 alone, 24 h, serial dilutions 28–0.2 μM
[4] = in combination with 10 nM PEP005, 24 h

CC(=O)Oc1ccccc1N(C=C1Sc2ccccc2C1=O)C(C)=O [PH02, 2‐{acetyl[(3‐oxo‐1‐benzothien‐2(3H)‐ylidene)methyl]amino}phenyl acetate]
above 1.75 μM: concentration reactivating viral transcription (LTR‐DsRed, ∆MFI) [1, 3] | PH02 concentration producing increased effects on HIV‐1 LTR transcription with PEP005 [1, 4] | concentration reactivating viral transcription (LTR‐DsRed, ∆MFI) [2, 3] | PH02 concentration producing increased effects on HIV‐1 LTR transcription with PEP005 [2, 4]
